Test results: publication PMC9334755 (Cancer Biology & Medicine, 2021)
Read-outs that look alike come from different tables or passages of the source.

What was measured:
[1] = monkey
TXK = TXK (Homo sapiens, UniProt P42681); test: Protein kinase panel at 1 µM, TXK; assay type: biochemical
human peripheral B cells = test: CD69 up-regulation in B cells after anti-IgM stimulation; assay type: cell-based
Description: (§1) CD19^+ B (>80% purity) and CD3^+ T (>90% purity) cells were purified with human B cell enrichment cocktail and human T cell enrichment cocktail (Stem Cell Technology), respectively. Cells were seeded on 12-well plates and incubated with different concentrations of BTK inhibitors for 1 h. B cells were stimulated with 50 µg/mL anti-human IgM F(ab′)2, and T cells were stimulated with 50 µg/mL anti-CD3/CD28 beads overnight. In the washout groups, the cell medium containing the indicated inhibitors was replaced with fresh medium before stimulation. Then cells were then incubated with anti-human CD69 for 1 h and analyzed with a Guava flow cytometer.
(§2) Figure 4 SY-1530 blocks B-cell receptor signaling and induces apoptosis. (A–D) Human B and T cells were purified and incubated with different concentrations of BTK inhibitors for 1 h. B cells were stimulated with 50 μg/mL anti-human IgM F(ab′)2, and T cells were stimulated with 50 μg/mL anti-CD3/CD28 beads overnight directly or after washout of BTK inhibitors before stimulation. The percentage of CD69 positive cells was analyzed by flow cytometry. Data are shown as the mean ± SEM (n = 3). Statistical analysis was performed with Student’s t-test (*P < 0.05, **P < 0.01, ***P < 0.001). (E) Pfeiffer cells and Romas cells were preincubated with different concentrations of compounds for 1 h, washed with PBS, and then stimulated with anti-IgM/anti-IgG (10 μg/mL) for 10 min. Cells were lysed and analyzed by Western blot with the indicated antibodies. (F) Pfeiffer cells were treated with various concentrations of SY-1530 for 24 h. The cells were stained with both PE-Annexin and 7-AAD and analyzed by flow cytometry. Data are shown as the mean ± SEM (n = 3). Statistical analysis was performed with Student’s t-test (*P < 0.05, **P < 0.01). (G) Pfeiffer cells were incubated with BTK inhibitors in the presence of z-VAD-fmk (caspase inhibitor) or DMSO for 24 h. Cells were lysed and analyzed with specific antibodies.

ITK = ITK (Homo sapiens, UniProt Q08881); test: HTRF assay of ITK activity
Description: (§4) Homogeneous time-resolved fluorescence (HTRF) assays were performed with a HTRF® KinEASE™-TK kit (Trevigen).

FGR = FGR (Homo sapiens, UniProt P09769); test: Protein kinase panel at 1 µM, FGR; assay type: biochemical
FLT1 = FLT1 (Homo sapiens, UniProt P17948); test: Protein kinase panel at 1 µM, FLT1; assay type: biochemical
hERG = hERG (Homo sapiens, UniProt Q12809)
Text: Tissue distribution *From the literature.
Hear Liver Spleen LungKidney Brain Uteru Ovar TestisPlasma
Compound Maximum concentration (μM) Inhibition rate of maximumconcentration IC 50 (μM) […]

EPHA3 = EPHA3 (Homo sapiens, UniProt P29320); test: Protein kinase panel at 1 µM, EPHA3; assay type: biochemical
BTK = BTK (Homo sapiens, UniProt Q06187); test: LC-MS/MS of free inhibitor after incubation with BTK; assay type: binding
Description: In addition, after incubation of BTK with the inhibitors for 4 h, we performed liquid chromatography-tandem mass spectrometry (LC-MS/MS) to detect the abundance of the inhibitors.
(A) The compounds were incubated with BTK for 2 h, after which HTRF assays were performed with dilution of the mixture. The reactions were stopped at different time points. Data are shown as the mean ± SEM. (B) The content of the compounds was measured with LC-MS/MS after incubation with BTK for 4 h. Data are shown as the mean ± SEM (n = 3). Statistical analysis was performed with Student’s t-test (***P < 0.001). […] Cells were lysed and analyzed by Western blot and fluorescent gel scanning.
Data are shown as the mean ± SEM. […] Data are shown as the mean ± SEM of 3 independent experiments. Statistical analysis was performed with Student’s t-test (**P < 0.01, ***P < 0.001). […] Cells were lysed and then analyzed by Western blot and fluorescent gel scanning. […] Cells were lysed and analyzed by Western blot and fluorescent gel scanning.

Caco-2 = conditions: human
Text: protein kinases Beagle dog PK
Kinase Inhibition (%) Kinase Inhibition (%) IV Oral
Species Plasma protein binding (%)
Tcells, and B-cell lymphoma
Compound Caco-2 permeability assay
(1 picture or pasted object on this page, not shown here)

human peripheral T cells = test: CD69 up-regulation in T cells after anti-CD3/CD28 stimulation; assay type: cell-based
Description: as §1, §2

TMD8 = test: Cell viability assay (CellTiter-Blue), TMD8; assay type: cell-based, human; conditions: TMD8 cells; read-out: IC50 (nM), growth of TMD8
Description: (§3) Cells were seeded on 96-well plates (9,000 cells/well), cultured at 37 °C in 5% CO2 overnight, and incubated with different concentrations of compounds for 3 or 7 days. Then the cells were stained with CellTiter-Blue® reagent (Promega) for 4 h at 37 °C. The fluorescence signals were detected with a FlexStation 3, and the IC50 values of each compound were determined with GraFit software (Version 6.0).

LCK = LCK (Homo sapiens, UniProt P06239); test: Protein kinase panel at 1 µM, LCK; assay type: biochemical
JAK3 = JAK3 (Homo sapiens, UniProt P52333); test: HTRF kinase assay, JAK3
Description: as §4

FGFR3 = FGFR3 (Homo sapiens, UniProt P22607); test: Protein kinase panel at 1 µM, FGFR3; assay type: biochemical
YES1 = YES1 (Homo sapiens, UniProt P07947); test: Protein kinase panel at 1 µM, YES1; assay type: biochemical
BMX = BMX (Homo sapiens, UniProt P51813); test: HTRF kinase assay, BMX
Description: as §4

B cell = test: Cell viability assay (CellTiter-Blue), human B cells; assay type: cell-based; conditions: read-out: IC50 (nM), growth of B cell
Description: as §3, §1

T cell = test: Cell viability assay (CellTiter-Blue), human T cells; assay type: cell-based; conditions: read-out: IC50 (nM), growth of T cell
Description: as §3, §1

TEC = TEC (Homo sapiens, UniProt P42680); test: HTRF kinase assay, TEC
Description: as §4

[2] = IC50 SY-1530 over IC50 ibrutinib

Sequence of JAK3 (P52333 whole entry): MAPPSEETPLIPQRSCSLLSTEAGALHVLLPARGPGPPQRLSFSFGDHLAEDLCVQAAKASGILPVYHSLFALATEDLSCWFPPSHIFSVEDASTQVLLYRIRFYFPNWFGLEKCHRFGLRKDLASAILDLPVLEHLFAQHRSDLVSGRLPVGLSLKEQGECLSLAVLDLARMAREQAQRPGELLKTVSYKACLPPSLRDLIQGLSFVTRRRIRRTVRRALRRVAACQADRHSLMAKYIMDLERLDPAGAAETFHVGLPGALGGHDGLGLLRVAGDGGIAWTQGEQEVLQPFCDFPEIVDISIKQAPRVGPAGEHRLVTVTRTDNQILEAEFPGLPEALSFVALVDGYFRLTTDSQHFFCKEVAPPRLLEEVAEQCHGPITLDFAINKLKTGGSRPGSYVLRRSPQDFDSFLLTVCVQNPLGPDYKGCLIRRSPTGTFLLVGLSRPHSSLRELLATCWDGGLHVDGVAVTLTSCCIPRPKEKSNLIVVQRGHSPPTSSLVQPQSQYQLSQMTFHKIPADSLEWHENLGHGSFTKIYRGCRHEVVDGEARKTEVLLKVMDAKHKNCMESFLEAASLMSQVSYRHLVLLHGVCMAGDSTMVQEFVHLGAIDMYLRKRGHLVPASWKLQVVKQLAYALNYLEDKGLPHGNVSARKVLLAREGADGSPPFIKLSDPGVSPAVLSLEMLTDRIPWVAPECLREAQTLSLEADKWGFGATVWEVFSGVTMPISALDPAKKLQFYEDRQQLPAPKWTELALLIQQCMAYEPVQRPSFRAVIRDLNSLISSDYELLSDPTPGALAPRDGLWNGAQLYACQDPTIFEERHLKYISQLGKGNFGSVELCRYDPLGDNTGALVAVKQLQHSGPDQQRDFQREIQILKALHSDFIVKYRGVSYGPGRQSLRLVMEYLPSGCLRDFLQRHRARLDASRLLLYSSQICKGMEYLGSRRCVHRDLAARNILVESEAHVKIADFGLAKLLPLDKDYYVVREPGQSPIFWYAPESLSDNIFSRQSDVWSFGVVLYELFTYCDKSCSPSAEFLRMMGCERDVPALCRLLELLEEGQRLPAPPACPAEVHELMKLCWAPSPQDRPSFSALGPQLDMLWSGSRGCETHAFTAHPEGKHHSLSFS
Sequence of BMX (P51813 whole entry): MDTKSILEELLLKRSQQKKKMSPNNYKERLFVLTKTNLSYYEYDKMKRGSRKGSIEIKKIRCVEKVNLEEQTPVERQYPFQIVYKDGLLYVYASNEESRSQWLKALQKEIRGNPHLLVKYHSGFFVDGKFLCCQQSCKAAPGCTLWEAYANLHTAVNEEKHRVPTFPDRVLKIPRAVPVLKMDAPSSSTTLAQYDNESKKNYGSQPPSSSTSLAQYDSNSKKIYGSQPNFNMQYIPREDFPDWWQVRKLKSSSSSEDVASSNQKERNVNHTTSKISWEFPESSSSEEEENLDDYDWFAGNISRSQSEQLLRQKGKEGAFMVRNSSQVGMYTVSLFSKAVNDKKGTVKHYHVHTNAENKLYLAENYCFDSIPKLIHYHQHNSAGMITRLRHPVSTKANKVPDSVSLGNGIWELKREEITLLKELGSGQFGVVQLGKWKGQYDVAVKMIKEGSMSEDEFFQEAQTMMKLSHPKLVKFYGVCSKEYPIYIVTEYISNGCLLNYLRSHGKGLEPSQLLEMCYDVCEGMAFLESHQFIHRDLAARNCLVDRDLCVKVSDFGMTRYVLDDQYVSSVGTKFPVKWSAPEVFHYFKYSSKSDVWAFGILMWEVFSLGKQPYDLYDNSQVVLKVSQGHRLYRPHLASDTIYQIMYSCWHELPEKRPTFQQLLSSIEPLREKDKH
Sequence of ITK (Q08881 whole entry): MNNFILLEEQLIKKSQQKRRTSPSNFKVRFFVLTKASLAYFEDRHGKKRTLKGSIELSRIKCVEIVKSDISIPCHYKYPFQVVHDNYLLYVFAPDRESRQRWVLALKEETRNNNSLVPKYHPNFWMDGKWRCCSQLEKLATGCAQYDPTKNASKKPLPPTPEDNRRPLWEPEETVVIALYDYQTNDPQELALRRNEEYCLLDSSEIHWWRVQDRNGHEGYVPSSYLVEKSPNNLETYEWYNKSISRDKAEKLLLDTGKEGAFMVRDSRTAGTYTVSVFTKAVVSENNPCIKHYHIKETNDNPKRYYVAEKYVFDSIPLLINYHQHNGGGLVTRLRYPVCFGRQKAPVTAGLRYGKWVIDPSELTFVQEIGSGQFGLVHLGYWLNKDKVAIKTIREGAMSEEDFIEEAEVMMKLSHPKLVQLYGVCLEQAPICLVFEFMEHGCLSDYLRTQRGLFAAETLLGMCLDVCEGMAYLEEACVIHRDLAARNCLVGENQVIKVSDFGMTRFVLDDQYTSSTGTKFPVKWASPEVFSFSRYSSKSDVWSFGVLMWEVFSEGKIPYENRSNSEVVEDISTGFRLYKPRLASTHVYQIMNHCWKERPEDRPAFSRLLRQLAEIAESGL
Sequence of BTK (Q06187 whole entry): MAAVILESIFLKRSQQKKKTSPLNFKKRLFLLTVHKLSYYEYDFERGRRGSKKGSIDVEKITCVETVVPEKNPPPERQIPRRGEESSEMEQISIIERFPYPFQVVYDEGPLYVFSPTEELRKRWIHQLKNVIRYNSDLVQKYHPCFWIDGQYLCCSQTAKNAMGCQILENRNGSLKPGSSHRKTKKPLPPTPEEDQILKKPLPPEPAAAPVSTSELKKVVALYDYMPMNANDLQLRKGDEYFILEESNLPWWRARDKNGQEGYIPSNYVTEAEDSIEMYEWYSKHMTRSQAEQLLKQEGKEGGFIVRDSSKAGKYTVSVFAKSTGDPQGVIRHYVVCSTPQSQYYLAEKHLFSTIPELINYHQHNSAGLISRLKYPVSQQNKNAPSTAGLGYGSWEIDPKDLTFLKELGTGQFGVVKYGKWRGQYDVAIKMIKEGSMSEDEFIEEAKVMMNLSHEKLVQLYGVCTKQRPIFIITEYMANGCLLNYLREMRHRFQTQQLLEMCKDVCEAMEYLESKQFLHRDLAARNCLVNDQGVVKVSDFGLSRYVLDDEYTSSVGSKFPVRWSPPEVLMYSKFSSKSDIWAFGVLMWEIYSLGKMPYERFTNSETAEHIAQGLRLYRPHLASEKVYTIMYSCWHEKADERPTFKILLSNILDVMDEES
Sequence of TEC (P42680 whole entry): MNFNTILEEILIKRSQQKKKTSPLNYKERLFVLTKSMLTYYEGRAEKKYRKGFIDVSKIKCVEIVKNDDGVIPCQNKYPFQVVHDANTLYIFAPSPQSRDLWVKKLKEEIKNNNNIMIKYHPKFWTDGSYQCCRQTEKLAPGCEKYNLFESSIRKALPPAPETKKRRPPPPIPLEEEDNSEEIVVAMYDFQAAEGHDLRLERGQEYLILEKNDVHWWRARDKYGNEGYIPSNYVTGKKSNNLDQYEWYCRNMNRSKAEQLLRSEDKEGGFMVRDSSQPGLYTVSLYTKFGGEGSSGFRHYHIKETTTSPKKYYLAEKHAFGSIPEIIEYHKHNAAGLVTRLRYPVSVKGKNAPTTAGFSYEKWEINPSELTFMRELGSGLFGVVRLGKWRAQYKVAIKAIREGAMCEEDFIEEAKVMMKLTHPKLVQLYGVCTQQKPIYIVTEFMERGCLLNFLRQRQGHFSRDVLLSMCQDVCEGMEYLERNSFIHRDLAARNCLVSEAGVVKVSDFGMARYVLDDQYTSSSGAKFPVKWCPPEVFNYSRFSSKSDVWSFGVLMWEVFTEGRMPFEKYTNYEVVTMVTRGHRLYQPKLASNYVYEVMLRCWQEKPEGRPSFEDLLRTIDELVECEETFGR
Sequence of hERG (Q12809 whole entry): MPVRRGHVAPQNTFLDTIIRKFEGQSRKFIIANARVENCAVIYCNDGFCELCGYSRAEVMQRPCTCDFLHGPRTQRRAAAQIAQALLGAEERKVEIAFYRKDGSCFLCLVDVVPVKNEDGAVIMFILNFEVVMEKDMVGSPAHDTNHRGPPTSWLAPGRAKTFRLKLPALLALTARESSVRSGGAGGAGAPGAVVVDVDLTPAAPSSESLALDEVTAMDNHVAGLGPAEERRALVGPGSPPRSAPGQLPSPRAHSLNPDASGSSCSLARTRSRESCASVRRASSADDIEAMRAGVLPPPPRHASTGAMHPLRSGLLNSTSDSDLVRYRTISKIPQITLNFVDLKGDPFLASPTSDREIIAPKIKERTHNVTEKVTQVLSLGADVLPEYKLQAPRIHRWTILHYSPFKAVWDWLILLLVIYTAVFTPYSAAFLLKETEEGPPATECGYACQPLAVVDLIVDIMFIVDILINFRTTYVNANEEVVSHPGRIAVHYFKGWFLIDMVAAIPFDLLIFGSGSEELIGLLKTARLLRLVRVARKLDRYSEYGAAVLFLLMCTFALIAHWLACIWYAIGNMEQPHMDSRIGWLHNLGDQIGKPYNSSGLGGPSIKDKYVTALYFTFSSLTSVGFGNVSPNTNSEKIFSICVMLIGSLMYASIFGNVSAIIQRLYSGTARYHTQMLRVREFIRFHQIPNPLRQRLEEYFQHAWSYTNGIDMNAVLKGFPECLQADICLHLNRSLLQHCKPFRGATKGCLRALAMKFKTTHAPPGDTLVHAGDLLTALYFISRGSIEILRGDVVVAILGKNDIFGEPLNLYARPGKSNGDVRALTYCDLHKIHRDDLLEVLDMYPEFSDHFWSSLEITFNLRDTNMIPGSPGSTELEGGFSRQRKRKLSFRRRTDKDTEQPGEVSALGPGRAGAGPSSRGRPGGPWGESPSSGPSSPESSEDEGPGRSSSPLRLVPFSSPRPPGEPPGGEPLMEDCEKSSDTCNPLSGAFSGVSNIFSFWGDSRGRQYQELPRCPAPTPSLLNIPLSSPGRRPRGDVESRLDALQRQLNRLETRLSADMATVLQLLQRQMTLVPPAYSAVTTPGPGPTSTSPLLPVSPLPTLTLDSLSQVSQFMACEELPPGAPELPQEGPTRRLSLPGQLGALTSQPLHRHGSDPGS

For COC/C=C/C(=O)N1CC[C@@H](n2nc(-c3ccc(Oc4ccccc4)cc3)c(C(N)=O)c2N)C1 [SY-1530], the “Plasma protein binding (%)” value [1] was 95.3%, the “Inhibition (%), TXK” value (TXK) was 73% and the “Up-regulation of CD69 in B cells after anti-IgM” value (human peripheral B cells; continuous exposure, 10 nM) was “completely abolished”. The “Up-regulation of CD69 in B cells after anti-IgM” value (human peripheral B cells; inhibitors washed out before BCR stimulation) was “blocked”, the “Ratio, ITK” value (ITK; [2]) was greater than 13 and the IC50 (ITK; read-out: IC50 toward ITK, HTRF) was greater than 1000 nM. The “Inhibition (%), FGR” value (FGR) was 96%, the “Inhibition (%), FLT1” value (FLT1) was 33% and the IC50 (hERG) was 5410 nM. For the same molecule, the “Inhibition rate of maximum concentration, hERG” value (hERG; 30 µM) was 86.75 ± 2.61%, the “Inhibition (%), EPHA3” value (EPHA3) was −2% and the “Incubation time to saturation of covalent binding to BTK kinase” value (BTK) was 30 min. For the same molecule, the “Decrease of free inhibitor after incubation with BTK” value (BTK; 4 h incubation) was “more than 80%”, the “Ratio = Papp BL→AP/Papp AP→BL” value (Caco-2; Caco-2, 0.1 μM) was 2.46 and the “Ratio = Papp BL→AP/Papp AP→BL” value (Caco-2; Caco-2, 1 μM) was 2.58. The “Ratio = Papp BL→AP/Papp AP→BL” value (Caco-2; Caco-2, 10 μM) was 2.92, the “Up-regulation of CD69 in T cells” value (human peripheral T cells; after washout of BTK inhibitors) was “not affected” and the “CD69 up-regulation after T cell receptor stimulation” value (human peripheral T cells; continuous exposure, 10 µM) was “slightly inhibited”. For the same molecule, the IC50 (TMD8) was 15.6 nM, the “Inhibition (%), LCK” value (LCK) was 94% and the “Ratio, JAK3” value (JAK3; [2]) was greater than 27. For the same molecule, the IC50 (JAK3; read-out: IC50 (nM), JAK3, HTRF) was greater than 10000 nM, the “Inhibition (%), FGFR3” value (FGFR3) was 25% and the “Inhibition (%), YES1” value (YES1) was 94%. The “Ratio, BMX” value (BMX; IC50 SY-1530 over literature IC50 of ibrutinib) was 9.4, the IC50 (BMX; read-out: IC50 (nM), BMX, HTRF) was 7.51 nM and the IC50 (B cell) was 1.05 nM. For the same molecule, the IC50 (T cell) was greater than 10000 nM, the “Ratio, TEC” value (TEC; [2]) was 1.3 and the IC50 (TEC; read-out: IC50 (nM), TEC, HTRF) was 10.4 nM.
